Structures are written as SMILES.

Test [1] has as its target angiotensin II AT1 receptor. Nature of the test: Assay A: Angiotensin II binding activity (125I-AII displacement, rat uterine membrane preparation).
A further test has as its system rabbit aortic rings. Description: Assay B: In vitro vascular smooth muscle response for AII (antagonist activity, pA2). As to conditions: Oryctolagus cuniculus, in vitro vascular smooth muscle response; two values per cell separated by / are separate determinations; read-out: Assay B pA2 (converted). The format is cell-based. As to the method:
Assay B: In Vitro Vascular Smooth Muscle-response for AII
The compounds of the invention were tested for antagonist activity in rabbit aortic rings. Male New Zealand white rabbits (2-2.5 kg) were sacrificed using an overdose of pentobarbital and exsanguinated via the carotid arteries. The thoracic aorta was removed, cleaned of adherent fat and connective tissue and then cut into 3-mm ring segments. The endothelium was removed from the rings by gently sliding a rolled-up piece of filter paper into the vessel lumen. The rings were then mounted in a water-jacketed tissue bath, maintained at 37° C., between moveable and fixed ends of a stainless steel wire with the moveable end attached to an FT03 Grass transducer coupled to a Model 7D Grass Polygraph for recording isometric force responses. The bath was filled with 20 ml of oxygenated (95% oxygen/5% carbon dioxide) Krebs solution of the following composition (mM): 130 NaCl, […], 15 KCl, 1.2 NaH2PO4, 1.2 MgSO4, 2.5 CaCl2, and 11.4 glucose. The preparations were equilibrated for one hour before approximately one gram of passive tension was placed on the rings. Angiotensin II concentration-response curves were then recorded (3×10^−10 to 1×10^−5 M). Each concentration of AII was allowed to elicit its maximal contraction, and then AII was washed out repeatedly for 30 minutes before rechallenging with a higher concentration of AII. Aorta rings were exposed to the test antagonist at […] for 5 minutes before challenging with AII. Adjacent segments of the same aorta ring were used for all concentration-response curves in the presence or absence of the test antagonist. The effectiveness of the test compound was expressed in terms of pA2 values and were calculated according to H. O. Schild [Br. J. Pharmacol, Chemother., 2,189-206 (1947)]. The pA2 value is the concentration of the antagonist which increases the EC50 value for AII by a factor of two. Each test antagonist was evaluated in aorta rings from two rabbits.

On to `CCCCc1nn(CCC(C)CC(C)(C)C)c(=O)n1Cc1ccc(-c2ccccc2-c2nn[nH]n2)cc1` (centres unmarked) [Compound 92], for which the concentration for half-maximal inhibition (IC50) – broadly, the concentration needed to halve the response being measured – in test [1] is 35 nM. Also, the Kb in the test with rabbit aortic rings was 12.6 nM.
On to `CCCCc1nc(CNC(=O)OC(C)(C)C)nn1Cc1ccc(-c2ccccc2-c2nnn[nH]2)cc1` [Compound 35], for which the IC50 in test [1] stood at 41 nM. Besides, the Kb with rabbit aortic rings is 56.2 nM.
For `CCCCc1nn(CC(OCC(=O)OCC)c2ccccc2)c(=O)n1Cc1ccc(-c2ccccc2-c2nn[nH]n2)cc1` (centres unmarked) [Compound 107], in that order: 180 nM and 5.01 nM.
`CCCCn1nc(C(OC(C)C)OC(C)C)nc1Cc1ccc(-c2ccccc2-c2nnn[nH]2)nc1` [Compound 178] came in with an IC50 in test [1] of 88 nM. The Kb in the test on rabbit aortic rings was 28.8 nM.
For `CCCCc1cn(-c2c(C(C)C)cccc2C(C)C)c(=O)n1Cc1ccc(-c2ccccc2-c2nnn[nH]2)cc1` [Compound 277], in that order: 190 nM and 288 nM.
The corresponding values for `CCCCc1nc(CNC(=O)CCC(NC(C)=O)C(=O)OC(C)(C)C)nn1Cc1ccc(-c2ccccc2-c2nnn[nH]2)cc1` (centres unmarked) [Compound 41] are 3700 nM and 2090 nM.
For `CCCCc1nc(CCCNC(=O)OC(C)(C)C)n(Cc2ccc(-c3ccccc3-c3nnn[nH]3)cc2)n1` [Compound 67], in that order: 3100 nM and 1320 nM.
On to `CCCCn1nc(C(F)(F)CC)nc1Cc1ccc(-c2ccccc2-c2nnn[nH]2)nc1` [Compound 168], for which the IC50 in test [1] worked out at 420 nM. In addition, the Kb in the test on rabbit aortic rings is 20.4 nM.
For `CCCCc1nn(C(C)(C)C(=O)c2ccccc2)c(=O)n1Cc1ccc(-c2ccccc2-c2nn[nH]n2)cc1` [Compound 102], in that order: 43 nM and 20 nM.
The corresponding values for `CCCCc1nn(CC(O)c2cc(OC)ccc2OC)c(=O)n1Cc1ccc(-c2ccccc2-c2nn[nH]n2)cc1` (centres unmarked) [Compound 98] are 22 nM and 7.94 nM.
For `CCCCc1nn(CC(=O)C23CC4CC(CC(C4)C2)C3)c(=O)n1Cc1ccc(-c2ccccc2-c2nn[nH]n2)cc1` [Compound 80], in that order: 25 nM and 7.94 nM.
Take `CCCCc1nc(CCCO)nn1Cc1ccc(-c2ccccc2-c2nnn[nH]2)cc1` [Compound 45]: the IC50 in test [1] turned out to be 4.4 nM. Also, the Kb with rabbit aortic rings was 3.89 nM.
The corresponding values for `CCCCc1nc(C)nn1Cc1ccc(-c2ccccc2C(=O)O)cc1` [Compound 280] are 480 nM and 389 nM.
`CCCCc1nc(C2CCCCC2)n(Cc2ccc(-c3ccccc3-c3nnn[nH]3)cc2)n1` [Compound 65] had an IC50 in test [1] of 23 nM. Moreover, in the test on rabbit aortic rings, the Kb is 14.1 nM.
The corresponding values for `CCCCn1nc(/C=C/c2cccs2)nc1Cc1ccc(-c2ccccc2-c2nnn[nH]2)nc1` [Compound 154] are 97 nM and 6.46 nM.
For `CCCCn1nc(CCc2ccccc2)nc1Cc1ccc(-c2ccccc2-c2nnn[nH]2)nc1` [Compound 151], in that order: 17 nM and 17.4 nM.
The corresponding values for `CCCCc1nc(C=O)nn1Cc1ccc(-c2ccccc2-c2nnn[nH]2)cc1` [Compound 49] are 120 nM and 87.1 nM.
Take `CCCCc1nn(C(CC(=O)OCC)C(=O)c2ccccc2)c(=O)n1Cc1ccc(-c2ccccc2-c2nn[nH]n2)cc1` (centres unmarked) [Compound 101]: the IC50 in test [1] was found to be 36 nM. Besides, the Kb in the test on rabbit aortic rings is 15.8 nM.
In test [1], `CCCn1nc(C(C)(F)F)nc1Cc1ccc(-c2ccccc2-c2nnn[nH]2)nc1` [Compound 165] registered an IC50 of 410 nM. Further, the Kb in the test on rabbit aortic rings is 126 nM.
For `CCCCc1nc(CCCC)n(Cc2ccc(-n3c(Br)ccc3-c3nnn[nH]3)cc2)n1` [Compound 141], in that order: 0.11 nM and 9.55 nM.
For `CCCCc1nc(CC23CC4CC(CC(C4)C2)C3)nn1Cc1ccc(-c2ccccc2-c2nnn[nH]2)cc1` [Compound 62], in that order: 26 nM and 2.04 nM.
For `CCCCc1nc(CCCC2CCCCC2)n(Cc2ccc(-c3ccccc3-c3nnn[nH]3)cc2)n1` [Compound 57], in that order: 2300 nM and 1000 nM.

The values above are taken from patent publication US6653306B1, “Epoxy-steroidal aldosterone antagonist and angiotensin II antagonist combination therapy” (G.D. Searle & Co., priority 1995, dated 2003).
